Literature values in PMC6024518 (International Journal of Immunopathology and Pharmacology, 2018).

System: SYK, JAK1, JAK2, JAK3 and other kinases
Settings: including JAK2

## COc1cc(Nc2ncc(F)c(Nc3ccc4c(n3)NC(=O)C(C)(C)O4)n2)cc(OC)c1OC [R406]
  number of kinases inhibited more potently than SYK: 24
